Source: ChEMBL document CHEMBL1201862, “PubChem BioAssay data set” (2004)
Counter-ions that a name gives are not always drawn.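 Exposure lasted 48 hours, with cells grown in 96-well plates and compounds tested at five concentrations. Abbreviation: GI50, concentration required for 50% inhibition of growth.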 The source made the active and inactive calls. Rule as the data show it: active = GI50 up to about 1.1 µM and inactive = higher.

Key:
Assay in all cases: growth of human tumour cells (NCI), 48 h
[1] = test system: SK-OV-3
[2] = test system: NCI-H226
[3] = test system: KM12
[4] = test system: SNB-19
[5] = test system: PC-3
[6] = test system: MCF7
[7] = test system: U-251
[8] = test system: NCI-H460
[9] = test system: TK-10
[10] = test system: SF-539
[11] = test system: RXF 393
[12] = test system: SF-295
[13] = test system: A498
[14] = test system: MDA-MB-231
[15] = test system: OVCAR-8
[16] = test system: SR
[17] = test system: A549
[18] = test system: MDA-MB-435
[19] = test system: M14
[20] = test system: SN12C
[21] = test system: NCI-H23
[22] = test system: UACC-62
[23] = test system: K562
[24] = test system: MOLT-4
[25] = test system: HCT-116
[26] = test system: HCC 2998
[27] = test system: CAKI-1
[28] = test system: UO-31
[29] = test system: HCT-15
[30] = test system: OVCAR-5
[31] = test system: CCRF-CEM
[32] = test system: SF-268
[33] = test system: NCI/ADR-RES
[34] = test system: 786-0
[35] = test system: SW-620
[36] = test system: MDA-N
[37] = test system: NCI-H522
[38] = test system: ACHN
[39] = test system: HT-29
[40] = test system: HOP-92
[41] = test system: DU-145
[42] = test system: Malme-3M
[43] = test system: SK-MEL-2
[44] = test system: COLO 205
[45] = test system: RPMI-8226
[46] = test system: LOX IMVI
[47] = test system: UACC-257
[48] = test system: SK-MEL-28
[49] = test system: OVCAR-4
[50] = test system: HOP-62
[51] = test system: SK-MEL-5
[52] = test system: IGROV-1
[53] = test system: T47D
[54] = test system: EKVX
[55] = test system: SNB-75
[56] = test system: HL-60
[57] = test system: OVCAR-3

For Nc1ccc(-c2nc3ccc(Cc4ccc5nc(-c6ccc(N)cc6)oc5c4)cc3o2)cc1, the GI50 [1] was > 100 µM (inactive), the GI50 [2] was > 100 µM (inactive) and the GI50 [3] was > 100 µM (inactive). For the same compound, the GI50 [4] was > 100 µM (inactive), the GI50 [5] was > 100 µM (inactive) and the GI50 [6] was > 100 µM (inactive). For the same compound, the GI50 [7] was > 100 µM (inactive), the GI50 [8] was > 100 µM (inactive) and the GI50 [9] was > 100 µM (inactive). For the same compound, the GI50 [10] was > 100 µM (inactive), the GI50 [11] was > 100 µM (inactive) and the GI50 [12] was > 100 µM (inactive). For the same compound, the GI50 [13] was > 100 µM (inactive), the GI50 [14] was > 100 µM (inactive) and the GI50 [15] was > 100 µM (inactive). The GI50 [16] was 12.7 µM (inactive), the GI50 [17] was > 100 µM (inactive) and the GI50 [18] was 82.4 µM (inactive). The GI50 [19] was 49.9 µM (inactive), the GI50 [20] was > 100 µM (inactive) and the GI50 [21] was > 100 µM (inactive). For the same compound, the GI50 [22] was > 100 µM (inactive), the GI50 [23] was 44.5 µM (inactive) and the GI50 [24] was 67 µM (inactive). The GI50 [25] was > 100 µM (inactive), the GI50 [26] was > 100 µM (inactive) and the GI50 [27] was > 100 µM (inactive). The GI50 [28] was > 100 µM (inactive), the GI50 [29] was > 100 µM and the GI50 [30] was > 100 µM (inactive). The GI50 [31] was > 100 µM (inactive), the GI50 [32] was > 100 µM (inactive) and the GI50 [33] was > 100 µM (inactive). For the same compound, the GI50 [34] was > 100 µM (inactive), the GI50 [35] was > 100 µM (inactive) and the GI50 [36] was > 100 µM (inactive). The GI50 [37] was > 100 µM (inactive), the GI50 [38] was > 100 µM (inactive) and the GI50 [39] was > 100 µM (inactive). For the same compound, the GI50 [40] was 47.4 µM (inactive), the GI50 [41] was > 100 µM (inactive) and the GI50 [42] was 40 µM (inactive). The GI50 [43] was > 100 µM (inactive), the GI50 [44] was > 100 µM (inactive) and the GI50 [45] was > 100 µM (inactive). The GI50 [46] was > 100 µM (inactive), the GI50 [47] was > 100 µM (inactive) and the GI50 [48] was > 100 µM (inactive). For the same compound, the GI50 [49] was > 100 µM (inactive).
With COc1ccc(C(=O)/C=C/c2ccc(OCC(=O)N3CCN(c4ccccc4)CC3)cc2)cc1OC the GI50 [1] was 6.07 µM (inactive), the GI50 [3] was 4.15 µM (inactive) and the GI50 [50] was 4.46 µM (inactive). The GI50 [5] was 3.56 µM (inactive), the GI50 [6] was 2.9 µM (inactive) and the GI50 [51] was 4.52 µM (inactive). The GI50 [9] was > 10 µM (inactive), the GI50 [52] was 9.38 µM (inactive) and the GI50 [11] was 1.83 µM (inactive). The GI50 [53] was 5.89 µM (inactive), the GI50 [12] was 6.3 µM (inactive) and the GI50 [14] was 4.69 µM (inactive). The GI50 [15] was 4.29 µM (inactive), the GI50 [16] was 2.18 µM (inactive) and the GI50 [17] was 5.36 µM (inactive). The GI50 [19] was 6.28 µM (inactive), the GI50 [20] was 4.82 µM (inactive) and the GI50 [21] was 2.05 µM (inactive). For the same compound, the GI50 [22] was 5.58 µM (inactive), the GI50 [23] was 3.14 µM (inactive) and the GI50 [24] was 2.34 µM (inactive). The GI50 [26] was 5.3 µM (inactive), the GI50 [27] was 5.28 µM (inactive) and the GI50 [29] was 4.84 µM. For the same compound, the GI50 [31] was 2.52 µM (inactive), the GI50 [32] was 3.39 µM (inactive) and the GI50 [54] was 7.01 µM (inactive). The GI50 [34] was 5.31 µM (inactive), the GI50 [35] was 5.73 µM (inactive) and the GI50 [36] was 3.21 µM (inactive). For the same compound, the GI50 [39] was 4.07 µM (inactive), the GI50 [41] was 1.42 µM (inactive) and the GI50 [55] was 3.72 µM (inactive). For the same compound, the GI50 [42] was 5.96 µM (inactive), the GI50 [44] was > 10 µM (inactive) and the GI50 [45] was 3.33 µM (inactive). For the same compound, the GI50 [56] was 2.88 µM (inactive), the GI50 [47] was 3.37 µM (inactive) and the GI50 [48] was 6.68 µM (inactive).
For COc1cc([C@@H]2c3cc4c(cc3[C@@H](Nc3ccc(NC(=O)c5cc([N+](=O)[O-])cn5C)cc3)[C@H]3COC(=O)[C@H]23)OCO4)cc(OC)c1O, the GI50 [3] was 0.22 µM (active), the GI50 [4] was 0.0538 µM (active) and the GI50 [50] was 0.0179 µM (active). For the same compound, the GI50 [5] was 0.188 µM (active), the GI50 [6] was < 0.01 µM (active) and the GI50 [8] was < 0.01 µM (active). For the same compound, the GI50 [9] was 0.348 µM (active), the GI50 [52] was 0.173 µM (active) and the GI50 [10] was 0.0577 µM (active). The GI50 [11] was 0.243 µM (active), the GI50 [53] was 0.0266 µM (active) and the GI50 [15] was 0.141 µM (active). For the same compound, the GI50 [17] was < 0.0124 µM (active), the GI50 [19] was 0.0731 µM (active) and the GI50 [21] was 0.0385 µM (active). For the same compound, the GI50 [22] was 0.0828 µM (active), the GI50 [23] was 0.108 µM (active) and the GI50 [24] was < 0.01 µM (active). For the same compound, the GI50 [25] was 0.114 µM (active), the GI50 [26] was 0.243 µM (active) and the GI50 [57] was 427 nM (active). For the same compound, the GI50 [28] was 0.244 µM (active), the GI50 [29] was 0.365 µM and the GI50 [30] was 0.419 µM (active). The GI50 [31] was < 0.01 µM (active), the GI50 [32] was 0.191 µM (active) and the GI50 [54] was 0.333 µM (active). The GI50 [34] was 0.0491 µM (active), the GI50 [35] was 0.135 µM (active) and the GI50 [37] was 0.272 µM (active). The GI50 [38] was 0.0213 µM (active), the GI50 [39] was 0.171 µM (active) and the GI50 [40] was 0.132 µM (active). For the same compound, the GI50 [41] was 0.0143 µM (active), the GI50 [55] was 0.0498 µM (active) and the GI50 [43] was 1.21 µM (inactive). The GI50 [44] was 0.254 µM (active), the GI50 [56] was 0.0176 µM (active) and the GI50 [47] was 0.581 µM (active). For the same compound, the GI50 [48] was 1.22 µM (inactive).
In the case of COc1cc2nc(N3CCN(C(=O)c4ccco4)CC3)nc(N)c2cc1OC [PRAZOSIN HYDROCHLORIDE], the GI50 [21] is reported as 13.7 µM (inactive).
